Measurements taken from PubChem BioAssay AID1117319 (Southern Research Institute, 2015).
Results filed as inconclusive are left out.

Molecular target: Virion infectivity factor (Human immunodeficiency virus type 1 group M subtype B (isolate BH10)) + Virion infectivity factor (Human immunodeficiency virus type 1 group M subtype B (isolate BRU/LAI)) + Virion infectivity factor (Human immunodeficiency virus type 1 group M subtype B (isolate PCV12)) + Virion infectivity factor (Human immunodeficiency virus type 1 group M subtype B (isolate HXB2)) + DNA dC->dU-editing enzyme APOBEC-3G (Homo sapiens) (UniProt P69720+P69721+P69722+P69723+Q9HC16)
Assay: HIV-1 Vif–A3G interaction blockers – biochemical, TR-FRET, GST-Vif 1-94, biotin-A3G peptide, dose response retest, primary screen (AID 1117319);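 note: Vif residues 1-94 fused to GST binding biotinylated APOBEC3G peptide 110-148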
Settings: TR-FRET GST-Vif / biotin-A3G peptide binding

Compound: O=C1CCCC(O)=C1N=Nc1ccc(C(=O)O)cc1
- IC50: 2.72 µM

Compound: CCn1c(SCC(=O)OC)nc2sc3c(c2c1=O)CCC3
- IC50: 12.7 µM

Compound: N#C/C(=C/c1ccc(N2CCCCCC2)o1)c1cccc(F)c1
- IC50: 24.6 µM

Compound: O=C(Nc1nc(-c2ccco2)c(-c2ccco2)s1)C1CCC1
- IC50: 1.93 µM

Compound: O=c1nc2s/c(=C\c3ccco3)c(=O)n2nc1Cc1ccccc1
- IC50: 4.18 µM

Compound: O=c1[nH]c2ccccc2n2c(-c3ccccc3)nnc12
- IC50: 15.5 µM

Compound: CCCN1C(=O)S/C(=C\c2ccc(N3CCOCC3)cc2C)C1=O
- IC50: 23.4 µM

Compound: Cc1onc(-c2ccccc2Cl)c1C(=O)NCc1ccco1
- IC50: 1.08 µM

Compound: Cc1cc(C(=O)NNC(=O)/C=C/c2ccco2)c(C)o1
- IC50: 13.3 µM

Compound: CC(C)C(C(=O)O)N1C(=O)/C(=C/C=C/c2ccco2)SC1=S (centres undefined)
- IC50: 0.36 µM

Compound: NC(=S)N=Nc1c(O)cc(O)c2[nH]c(=O)ccc12
- IC50: 8.04 µM

Compound: CCN(CC)c1ccc(NC2=C(Cl)C(=O)c3ccccc3C2=O)cc1
- IC50: 3.81 µM

Compound: Cc1ccc(CNC(=O)COc2ccc3c(c2)CCC3)cc1
- IC50: 44.6 µM

Compound: CC(=O)Nc1cc(NC(C)=O)cc(C(=O)N2CCCC3CCCCC32)c1 (centres undefined)
- IC50: 9.5 µM

Compound: Cc1cc(O)c(Oc2cc(C)cc(O)c2O)c(O)c1
- IC50: 13.8 µM

Compound: CCOc1cccc(=O)c2c(C)n(-c3ccc(C(=O)O)cc3)c(C)c12
- IC50: 4.49 µM

Compound: Cc1noc(C)c1COc1ccc(C(=O)OCC(=O)N2c3ccccc3NC(=O)C2(C)C)cc1
- IC50: 14.9 µM

Compound: COc1cccc(-c2cc(C(=O)Nc3c(C)n(C)n(-c4ccccc4)c3=O)no2)c1
- IC50: 72.5 µM

Compound: Cc1ccc(C)c2[nH]c(=O)c(CN(Cc3ccc4c(c3)OCO4)Cc3nnnn3Cc3ccco3)cc12
- IC50: 12.4 µM

Compound: CCOC(=O)C1=C(N)n2c(s/c(=C\c3ccco3)c2=O)=C(C(=O)OC(C)C)C1c1ccco1 (centres undefined)
- IC50: 1.23 µM

Compound: COc1ccccc1C1CC(=O)Nc2c1c(=O)n(C)c(=O)n2C (centres undefined)
- IC50: 70.4 µM

Compound: c1coc(-c2nc(-c3ccco3)c(-c3ccco3)nc2-c2ccco2)c1
- IC50: 0.35 µM

Compound: CCN(CC)c1ccc(N=Cc2ccc(N(CC)CC)cc2O)cc1
- IC50: 50.7 µM

Compound: CCCCNC(=O)c1ccc2nc(-c3ccco3)c(-c3ccco3)nc2c1
- IC50: 1.19 µM

Compound: O=C(O)C1OC(Oc2c(-c3ccc(O)c(O)c3)oc3cc(O)cc(O)c3c2=O)C(O)C(O)C1O (centres undefined)
- IC50: 2.7 µM

Compound: CC(=O)c1ccc2c(c1)C1C=CCC1C(c1ccncc1)N2 (centres undefined)
- IC50: 3.16 µM

Compound: CCN(CC)c1ccc(C2NC(=O)NC(C)=C2C(=O)Nc2ccccc2)cc1 (centres undefined)
- IC50: 84.4 µM

Compound: CCOC(=O)C1CCN(Cc2cnc(Oc3ccc(OC)cc3)s2)CC1
- IC50: 80.9 µM

Compound: CCc1cccc(NC(=O)CCS(=O)(=O)c2ccc(Br)cc2)c1
- IC50: 14.7 µM

Compound: COc1cc(N(C)C)ccc1C=c1c2ccccc2n2c1cc(-c1ccccc1)[n+]2C
- IC50: 5.33 µM

Compound: Cc1occc1-c1nnc(SCC(=O)N2CCN(c3ccccc3)CC2)n1C
- IC50: 56.8 µM

Compound: O=C1CCC/C1=C/Nc1ccc2c(c1)OCO2
- IC50: 2.09 µM

Compound: O=C(O)c1cccc2cccc(-c3c4ccc(=O)c(O)c-4oc4c(O)c(O)ccc34)c12
- IC50: 0.53 µM

Compound: CCOc1cccc(=O)c2c(C)oc(C)c12
- IC50: 6.16 µM

Compound: Oc1ccc(NCc2cccc(OCc3ccc(F)cc3)c2)cc1
- IC50: 2.37 µM

Compound: NC(=O)c1c(NC(=O)c2ccc(S(=O)(=O)N3CCOCC3)cc2)sc2c1CCCCC2
- IC50: 98.3 µM

Compound: O=C(c1ccc2nc(-c3ccco3)c(-c3ccco3)nc2c1)N1CCC2(CC1)OCCO2
- IC50: 0.35 µM

Compound: Cc1nc(C)c(C(=O)Nc2nc3c(C)cccc3s2)o1
- IC50: 32 µM

Compound: Cc1ccc2c(c1)c(=O)c1c3n2CCN(C(=O)CCl)C3CC1 (centres undefined)
- IC50: 10.8 µM

Compound: O=C(Cc1csc(N2CCOCC2)n1)N/N=C/c1ccc(O)c(O)c1O
- IC50: 1.3 µM

Compound: O=C1C=C(c2c(O)ccc3ccccc23)c2ccccc2C1=O
- IC50: 2.54 µM

Compound: CNC(=O)[C@@H]1C[C@H]1[C@@H](NC(=O)OCc1ccccc1)c1ccccc1
- IC50: 16.6 µM

Compound: CCn1c(C)nc2cc(C(=O)N/N=C/c3ccc(O)c(O)c3O)ccc21
- IC50: 0.52 µM

Compound: Oc1ccc(/C=C/c2cc(O)cc(O)c2)cc1
- IC50: 25.3 µM

Compound: N#CC1=C(Nc2ccccc2)SC=C(c2ccc(Br)cc2)N=C1N1CCOCC1
- IC50: 97.1 µM

Compound: O=[N+]([O-])c1c(NCCO)cc(Sc2nc3ccccc3s2)c2nonc12
- IC50: 34.9 µM

Compound: Cc1cc(C(=O)CSc2nnnn2C)c(C)n1CCc1ccc(Cl)cc1
- IC50: 29.4 µM

Compound: c1ccc2c(c1)CCCN2Cc1nnc2n1CCCCC2
- IC50: 31.5 µM

Compound: O=C(NC1CCC(C(=O)O)CC1)OCc1ccccc1 (centres undefined)
- IC50: 12.4 µM

Compound: COc1ccc(Oc2nc(C)cc(C)c2C#N)cc1
- IC50: 59.3 µM

Compound: COc1cc(C(=O)NCc2nnc(SCC(=O)Nc3nc4ccc(C)cc4s3)o2)cc(OC)c1OC
- IC50: 45.3 µM

Compound: O=C(O)CC(C(=O)O)N1C(=O)/C(=C/c2ccc(-c3nc4ccccc4s3)o2)SC1=S (centres undefined)
- IC50: 6.36 µM

Compound: O=C(NC1CC1)c1cc(-c2ccco2)nc2ccccc12
- IC50: 2.53 µM

Compound: COc1ccc(NCc2nc3ccccc3n2CCOc2ccccc2)cc1
- IC50: 49 µM

Compound: COc1cccc(NS(=O)(=O)c2ccc3c(c2)C2C=CCC2C(c2ccc(C(=O)O)cc2)N3)c1 (centres undefined)
- IC50: 3.32 µM

Compound: O=c1[nH]c(=S)[nH]c2c1C(c1ccc(Br)cc1)c1c([nH]c(=S)[nH]c1=O)O2
- IC50: 41.1 µM

Compound: O=c1[nH][nH]c2c(N=Cc3ccccc3O)ccc(F)c12
- IC50: 0.87 µM

Compound: COc1ccc(Cl)cc1NC(=O)CCS(=O)(=O)c1ccc(Br)cc1
- IC50: 8.09 µM

Compound: O=C(NCc1ccccn1)c1coc(=O)c(Br)c1
- IC50: 58.6 µM

Compound: O=C(NC1CCCC1)c1ccc2nc(-c3ccco3)c(-c3ccco3)nc2c1
- IC50: 0.3 µM

Compound: Cc1cccc(OCCn2cccc2/C=C2/C(=O)NC(=O)N(Cc3ccco3)C2=O)c1
- IC50: 4.18 µM

Compound: O=C(Cc1ccccc1)NC(Nc1ccccc1)C(Cl)(Cl)Cl (centres undefined)
- IC50: 27.9 µM

Compound: CC(=O)N(\C=C/C=C/C=C1\Sc2ccccc2C1=O)c1ccccc1
- IC50: 5.47 µM

Compound: COC(=O)Cn1c(CCC(=O)O)ccc1-c1ccccc1
- IC50: 12.5 µM

Compound: CC[C@H](C)/C=C(C)/C=C/C1=CC2=CC(=O)[C@]3(C)OC(=O)[C@@H](C(C)=O)[C@@H]3C2=CO1
- IC50: 13 µM

Compound: CCc1cc(=O)n2[nH]c(C)c(-c3ccccc3OC)c2n1
- IC50: 4.38 µM

Compound: O=C(Nc1ccc2nc(-c3ccco3)c(-c3ccco3)nc2c1)N1CCCCCC1
- IC50: 0.58 µM

Compound: CC(C)N1C(=O)/C(=C/C=C/c2ccco2)C(=O)N(Cc2ccco2)C1=O
- IC50: 2.19 µM

Compound: Cc1cc(C)cc(Nc2ccc(C(=O)O)cc2N)c1
- IC50: 26.1 µM

Compound: COc1ccc(/C=N\NC(=O)c2cc(O)c(O)c(O)c2)cc1CN1CCN(c2ccc(F)cc2)CC1
- IC50: < 2.47 µM

Compound: CC(C)(C)NC(=O)C(c1ccncc1)N(C(=O)CNC(=O)c1ccco1)c1ccc2c(c1)OCO2 (centres undefined)
- IC50: 11.3 µM

Compound: CNCc1ccccc1Sc1cc(O)ccc1O
- IC50: 3.46 µM

Compound: Cc1ccc(N2C(=O)NC(=O)/C(=C\C=C\c3ccco3)C2=O)cc1
- IC50: 8.48 µM

Compound: O=[n+]1c2c(n([O-])c3cc(F)c(F)cc31)CCCC2
- IC50: 5.33 µM

Compound: CNc1cccccc1=S
- IC50: 0.51 µM

Compound: COc1ccc(NC(=O)c2cc(-c3ccco3)nc3ccccc23)cc1S(=O)(=O)N1CCOCC1
- IC50: 2.38 µM

Compound: Cc1cc(/C=C2\SC(=S)NC2=O)c(C)n1-c1ccccc1
- IC50: 14.1 µM

Compound: COC(=O)C1=C(C)NC(=O)/C1=C\c1ccco1
- IC50: 6.12 µM

Compound: CCC(Cc1ccccc1)NC(=O)C1CCN(S(=O)(=O)c2c(C)noc2C)CC1 (centres undefined)
- IC50: 91 µM

Compound: CN1CCN(C2=C(Cl)C(=O)C(c3cnc(N4CCCCC4)s3)=C(Cl)C2=O)CC1
- IC50: 2.5 µM

Compound: Cc1ccc(-c2cc(-c3ccc4c(c3)OCO4)c(C#N)c(N)n2)o1
- IC50: 7.11 µM

Compound: Cc1ccc(C(=O)Nc2ccc(O)c(C(=O)O)c2)o1
- IC50: 3.87 µM

Compound: O=C(Nc1ccc2nc(-c3ccco3)c(-c3ccco3)nc2c1)NC1CC1
- IC50: 0.3 µM

Compound: NC(CO)C(=O)NNCc1ccc(O)c(O)c1O (centres undefined)
- IC50: 1.49 µM

Compound: CCCCC1=CC2=CC(=O)C(C)(OC(=O)c3cnc4ccccc4n3)C(=O)C2=CO1 (centres undefined)
- IC50: 12.4 µM

Compound: COc1ccc(N2CCN(c3nc4ccccc4nc3NS(=O)(=O)c3ccccc3)CC2)cc1
- IC50: 66.6 µM

Compound: COc1ccc(Nc2ccc(OC)cc2)cc1
- IC50: 6.72 µM

Compound: N=C1C=CC(=C(c2ccc(N)cc2)c2ccc(N)cc2)C=C1
- IC50: 3.43 µM

Compound: CCOC(=O)c1c(NC(=O)c2cccs2)sc(C)c1C
- IC50: 32.9 µM

Compound: CN(C)c1ccc(N=C/C=C2/N(C)c3ccccc3C2(C)C)cc1
- IC50: 2.19 µM

Compound: O=C1/C(=C/c2ccco2)Oc2c1ccc(O)c2CN1CCCCC1
- IC50: 1.36 µM

Compound: CCOC(=O)Cn1nnnc1C(C(C)C)N(Cc1cc2c(C)cc(C)cc2[nH]c1=O)C1CCCC1 (centres undefined)
- IC50: 46 µM

Compound: O=C(O)CCCCC1SCC2NC(=O)NC21 (centres undefined)
- IC50: 0.27 µM

Compound: CCc1ccc(S(=O)(=O)/N=C2\C=CC(=O)c3ccccc32)cc1
- IC50: 8.1 µM

Compound: CC(=O)c1ccc(NC(=O)c2ccc3nc(-c4ccco4)c(-c4ccco4)nc3c2)cc1
- IC50: 1.38 µM

Compound: O=C1[C@@H]2C(Cc3ccc(O)cc3)NC3(C(=O)Nc4ccc(F)cc43)[C@@H]2C(=O)N1c1ccc(F)cc1 (some centres undefined)
- IC50: 64.5 µM

Compound: Nc1ccc(N2CCN(Cc3ccccc3Cl)CC2)c(Cl)c1
- IC50: 85.1 µM

Compound: Oc1cccc(/C=N/NC(=S)NCCN2CCOCC2)c1O
- IC50: 12.4 µM

Compound: CCCCOc1ccc(C(=O)NCC(=O)NCC(=O)OCC)cc1
- IC50: 76.9 µM

Compound: CC1CC(=O)c2c(cc3c(-c4c(O)cc(O)c5c(O)c6c(cc45)OC(C)CC6=O)c(O)cc(O)c3c2O)O1 (centres undefined)
- IC50: 0.41 µM

Compound: NN=C1C(Cl)=C(Cl)C(Cl)=C1Cl
- IC50: 10.6 µM

Compound: CC1=C(C(=O)Nc2ccccc2F)C(c2ccsc2)C2=C(CC(c3ccccc3)CC2=O)N1 (centres undefined)
- IC50: 1.02 µM

Compound: Cc1cc(Cl)c(S(=O)(=O)NCC2CCCO2)cc1OCC(=O)NC1CCCCC1 (centres undefined)
- IC50: 77.1 µM

Compound: O=C(OCC1O[C@@H](OC(=O)c2cc(O)c(O)c(O)c2)[C@@H](OC(=O)c2cc(O)c(O)c(O)c2)[C@@H](OC(=O)c2cc(O)c(O)c(O)c2)[C@@H]1OC(=O)c1cc(O)c(O)c(O)c1)c1cc(O)c(O)c(O)c1 (some centres undefined)
- IC50: < 0.195 µM

Compound: [O-][n+]1onc2c1CCc1c-2nc(-c2ccccc2)n1OCc1ccccc1
- IC50: 76.9 µM

Compound: O=C(O)C1Cc2ccccc2N2CCCC12 (centres undefined)
- IC50: 15.2 µM

Compound: O=C1C=C(Nc2cccc3cccnc23)c2ccccc2C1=O
- IC50: 22.8 µM

Compound: Cc1cc(-c2nc3c4c5c(sc4[nH]c(=O)n3n2)CCC5)c(C)o1
- IC50: 0.69 µM

Compound: O=C1C(=Cc2ccco2)CCCC1=Cc1ccco1
- IC50: 12.1 µM
